Measured values published in paper PMC12474366, “Metabolic Profiling, Tissue Distribution, and Tolerance Assessment of Bopu Powder in Laying Hens Following Long-Term Dietary Administration” (Veterinary Sciences, 2025).
Where “and” joins values, the source holds several entries; their conditions need not be identical. Equal values may be shown once. Read-outs that look alike come from different tables or passages of the source. One block for each compound: values may come before it.

Assays:
[1] = Residues of PRO and ALL in laying hens' tissues and eggs after 56-day dietary Bopu Powder (LC-QQQ-MS); conditions: mean ± sd; for concentration at 56 days: female, Roman Gray, chicken (laying hens), in vivo, n = 6, LOD 1 ng/g wet weight
Method: Throughout the experimental period, the hens were housed in cages under standard laboratory conditions, with ad libitum access to feed and water. Following a 7-day acclimatization period, standardized feeding regimens and routine health management procedures, including biosecurity protocols, were implemented. […] Three experimental groups were established: CN (control, no additive), BP (50 mg/kg additive), and BPX (500 mg/kg additive). The study employed a randomized design with 6 replicates per group and 18 hens per replicate. The feeding trial duration was 56 days.
Additionally, at the end of week 8, from each replicate group, one hen was randomly selected. A 10 mL blood sample was collected from the subcutaneous ulnar vein; 5 mL was transferred into an EDTA-K2 anticoagulant tube, gently mixed, and centrifuged at 3000× g for 10 min. The separated plasma was transferred into EP tubes (Eppendorf tubes) and stored at −20 °C for residue analysis.
Eggs: During weeks 4 and 8 of the trial, two eggs per replicate group, approximating the mean egg weight, were collected and stored at 4 °C until analysis.
Segments of jejunum, ileum, liver, ovary, oviduct, uterus, pectoral muscle, thigh muscle, gizzard, abdominal fat, and subcutaneous fat were individually wrapped in aluminum foil, flash-frozen in liquid nitrogen, and stored at −80 °C pending analysis.
Eggs: Two grams of homogenized whole egg liquid was transferred into a 50 mL centrifuge tube containing homogenization beads. Twenty microliters of the 1 mg/L internal standard (IS) working solution was precisely added, followed by vortex mixing for 30 s. Subsequently, 10 mL of acetonitrile was added and the mixture was vortex-mixed for 5 min to facilitate extraction. The sample was then centrifuged at 8000× g for 5 min. Five milliliters of the resulting supernatant was transferred to a ten-milliliter centrifuge tube, combined with three milliliters of n-hexane, and vortex-mixed for 1 min. After phase separation, the upper n-hexane layer was carefully removed using a rubber-bulb pipette. Then, 1 mL of the lower aqueous acetonitrile phase was collected, evaporated to dryness under a nitrogen stream, and reconstituted in 0.5 mL of acetonitrile with 30 s of vortex mixing. The final extract was filtered through a 0.22 μm organic solvent-compatible membrane prior to LC-MS/MS analysis. Only two quality control (QC) measures were implemented: parallel duplicate samples, and blank/carryover checks.
Tissues: Tissue samples stored at −80 °C were thawed to room temperature. Approximately 2 g of tissue was weighed into a 50 mL screw-cap centrifuge tube. Twenty microliters of freshly prepared 20 mg·L^−1 IS solution and 1 mL of physiological saline were added.

[2] = set-up: method as in PMID 39805195; conditions: broiler hepatic microsomes, stable isotope tracing; cited from earlier work
[3] = set-up: method as in doi:10.19378/j.issn.1003-9783.2020.12.010; conditions: rats, oral administration of ALL; cited from earlier work
[4] = porcine liver S9 fractions; cited from earlier work
[5] = cited from earlier work
[6] = cited from earlier work; remark: listed apart in the source
[7] = rat liver S9 fractions; cited from earlier work
[8] = Metabolite identification in plasma and feces after intravenous PRO or ALL (LC-Q-TOF-MS)
Method: (§1) Nine hens were allocated to the metabolic study. These birds were randomly divided into three groups (n = 3 per group): the blank control group, the PRO group, and the ALL group.
(§2) Plasma: Blood samples were collected from the subcutaneous ulnar vein at 5, 10, 20, 30, 60, and 120 min post-administration. Samples were centrifuged at 4 °C and 3200× g for 10 min. The supernatant (plasma) was collected and stored at −80 °C for subsequent metabolite analysis.
(§3) Feces: Feces were collected over the intervals 0–6 h, 6–12 h, 12–24 h, and 24–48 h following intravenous administration. All fecal samples were immediately stored at −80 °C.
(§4) Plasma: Plasma samples stored at −80 °C were thawed at room temperature. A pooled plasma sample was prepared by combining equal volumes of plasma from each designated collection timepoint. A 200 μL aliquot of this pooled plasma was precisely transferred into a 1.5 mL microcentrifuge tube. Subsequently, 800 μL of acetonitrile was added to precipitate proteins, and the mixture was vortex-mixed vigorously for 2 min. Following protein precipitation, the tube was sealed and sonicated for 20 min. The sample was then centrifuged at 12,000× g for 10 min. The resulting supernatant was carefully collected and evaporated to dryness under a gentle stream of nitrogen at room temperature. The dried residue was reconstituted in 200 μL of acetonitrile, vortex-mixed for 2 min, and centrifuged again at 12,000× g for 5 min. Finally, the supernatant was filtered through a 0.22 μm organic membrane filter prior to LC-MS/MS analysis.
(§5) Feces: Fecal samples stored at −80 °C were thawed at room temperature and homogenized. A 2.00 g aliquot of the homogenized feces was accurately weighed into a 50 mL centrifuge tube. Ten milliliters of acetonitrile, serving as the extraction solvent, was added to the sample, which was then vortex-mixed for 5 min. The tube was sealed and subjected to sonication for 20 min.

[9] = test system: carbon tetrachloride, acetaminophen, and simvastatin-induced hepatotoxicity; set-up: method as in PMID 9782072; conditions: PRO 11–22 mg/kg body weight; cited from earlier work
[10] = rat, in vivo; cited from earlier work
[11] = in vivo, iv, 1 mg/kg
Method: as §1, §2, §3, §4, §5

[12] = BPX group: 500 mg/kg Bopu Powder in diet, 56 days, n = 6, LOD 1 ng/g wet weight

Compound: COc1ccc2c(c1OC)CN(C)CCc1cc3c(cc1C(=O)C2)OCO3 [ALL, allocryptopine]
residues in kidney ([1]; BP group: 50 mg/kg Bopu Powder in diet, 56 days, n = 6, LOD 1 ng/g wet weight): 6.59 ± 4.61 ng/g
residues in eggs [1, 12]: 12.29 ng/g and 12.29 ± 4.69 ng/g
residues in kidney [1, 12]: 7.92 ± 4.12 ng/g
residues in liver [1, 12]: 56.14 ± 9.39 ng/g
concentration at 56 days ([1]; 50 mg/kg, residues in kidney, BP group: 50 mg/kg Bopu Powder in diet): 6.59 ng/g
concentration at 56 days ([1]; 500 mg/kg, residues in kidney, BPX group: 500 mg/kg Bopu Powder in diet): 7.92 ng/g
concentration at 56 days ([1]; 500 mg/kg, residues in liver, BPX group: 500 mg/kg Bopu Powder in diet): 56.1 ng/g
number of key metabolites identified [2]: five
number of metabolites identified, including isomers [3]: 25
number of metabolites detected [4]: four
residues in eggs throughout ([5]; 400 mg/kg feed Bopu Powder, 7 days): undetectable
residual levels 1 day after withdrawal ([5]; 2000 mg/kg feed Bopu Powder, 7 days): 8.61 µg/kg
residues 7 days post-withdrawal ([5]; 2000 mg/kg feed Bopu Powder): residues persisted
residues in urine, feces, plasma, and various tissues ([6]; rats, following ALL administration): < 3 ng/g
number of metabolites detected [7]: eight
number of metabolites detected in pooled plasma ([8]; intravenous 1 mg/kg bw, pooled plasma 5 to 120 min post-administration): seven
number of metabolites identified in plasma and feces ([8]; intravenous 1 mg/kg·bw, blood 5–120 min, feces 48 h collection): 9

number of metabolites detected in fecal samples [11]: Eleven
number of metabolites detected in pooled plasma [11]: two
number of metabolites identified in plasma and feces [11]: 12
Compound: protopine
hepatoprotective effect [9]: effectively counteracts carbon tetrachloride, acetaminophen, and simvastatin-induced hepatotoxicity
highest residual level, liver at 48 h ([6]; rat, in vivo): 20.64 ng/g
highest residual level, spleen at 24 h ([6]; rat, in vivo): 44.04 ng/g
highest residue level, liver at 48 h (second statement) ([6]; rat, in vivo): 61.8 ng/g
residue levels in other tissues (second statement) ([6]; rat, in vivo): below 6.5 ng/g
time until concentrations fell below LOQ (10 ng/mL) [10]: ≤ 8 h
